Results published in US20220324808A1, “Co-crystal of Compound I Dihydrochloride and Preparation Method and Use Thereof” (CRYSTAL PHARMACEUTICAL (SUZHOU) CO., LTD., priority 2020, published 2022).
Where two headings read alike, the source gives them in different places.

Legend:
[1] = Storage stability of drug substance (crystalline form by XRPD, chemical impurity by HPLC); type: physicochemical
From the text: (§1) Crystalline form and chemical impurity were checked by XRPD and HPLC, respectively.
as §1

[2] = Humidity stability by DVS; type: physicochemical; conditions: humidity range 0-95% RH, XRPD before and after
Experimental: Dynamic Vapor Sorption (DVS) was measured via an SMS (Surface Measurement Systems Ltd.) intrinsic DVS instrument. Typical Parameters for DVS test are as follows:
Gas and flow rate: nitrogen, 200 mL/min
Rate of mass change: 0.002%/min
RH range: 0% RH to 95% RH
DVS was applied to test the stability of Form CSI under different humidity with about 10 mg of samples. The weight change at each relative humidity were recorded in a humidity range of 0-95% RH.
DVS was applied to test the stability of Form CSIII under different humidity with about 10 mg of samples. The weight change at each relative humidity were recorded in a humidity range of 0-95% RH.

[3] = Mechanical stability: manual grinding, XRPD before and after; type: physicochemical; conditions: ground manually for 5 minutes in mortar
Experimental: Solid sample of prior art Form A, Form CSI and Form CSIII of the present disclosure were separately grounded manually for 5 minutes in mortars. The XRPD patterns overlay before and after grinding is shown in FIG. 14, FIG. 15 and FIG. 16.

[4] = Mechanical stability: tableting under different pressure, XRPD; type: physicochemical; conditions: 5 kN, 10 kN, 20 kN pressure
From the text: A certain amount of Form CSI and Form CSIII were compressed into tablets under 5 kN, 10 kN, 20 kN pressure with suitable tableting die. Crystalline form before and after tableting were checked by XRPD.

[5] = Adhesiveness (material sticking to the punch); type: physicochemical; conditions: 30 mg, φ8 mm round tooling, 10 KN; for Maximum amount (mg) of material sticking to the punch: held 30 s
Experimental: 30 mg of Form CSI, Form CSIII and prior art Form A were weighed and then added into the dies of φ8 mm round tooling, compressed at 10 KN and held for 30 s. The punch was weighed and the amount of material sticking to the punch was calculated. The compression was repeated twice and the maximum amount of material sticking to the punch during the compression were recorded.

[6] = Crystalline form before and after formulation process (XRPD); type: physicochemical; conditions: dry granulation and tableting
From the text: The formulation and preparation process of Form CSI and Form CSIII are shown in Table 16 and Table 17, respectively.

[7] = Compressibility (manual tablet press, tensile strength); type: physicochemical; conditions: 10 KN
Experimental: A manual tablet press was used for compression. 60 mg of Form CSIII and prior art Form A were weighed and added into the dies of a φ6 mm round tooling, compressed at 10 KN manually, then stored at room temperature for 24 h until complete elastic recovery, diameter (D) and thickness (L) were tested with a caliper. Hardness (H) was tested with an intelligent tablet hardness tester. Tensile strength of the powder was calculated with the following formula: T=2H/πDL. Under a certain force, the greater the tensile strength, the better the compressibility.

[8] = cited from earlier work; for crystalline form conversion at low humidity: under 5% RH
[9] = heated to 75-100° C.; WO2014152270A1; cited from earlier work
[10] = 25° C./60% RH (sealed), 6 Months
[11] = 40° C./75% RH (sealed), 6 Months
[12] = 60° C./75% RH (sealed), 1 Month
[13] = 60 mg, φ6 mm round tooling, after 24 h

COC(=O)N1CCN(Cc2cccc(NC(=O)Nc3ccc(C)nc3)c2F)CC1.COC(=O)N1CCN(Cc2cccc(NC(=O)Nc3ccc(C)nc3)c2F)CC1.Cl.Cl.Cl.Cl.O=C(O)/C=C/C(=O)O [Form CSI]
Purity (%) ([1]; 25° C./60% RH (open), 6 Months): 99.66% | Solid Form ([1]; 25° C./60% RH (open), 6 Months): Form CSI | Purity (%) [1, 10]: 99.65% | Solid Form [1, 10]: Form CSI | storage stability (in words) ([1]; 25° C./60% RH and 40° C./75% RH): stable for at least six months | Purity (%) ([1]; 40° C./75% RH (open), 6 Months): 99.65% | Solid Form ([1]; 40° C./75% RH (open), 6 Months): Form CSI | Purity (%) [1, 11]: 99.64% | Solid Form [1, 11]: Form CSI | storage stability (in words) ([1]; 60° C./75% RH): stable for at least one month | Purity (%) [1, 12]: 99.70% | Solid Form [1, 12]: Form CSI | Purity (%) ([1]; Initial): 99.71% | Solid Form ([1]; Initial): Form CSI | crystalline state after DVS test [2]: remains unchanged | crystal form and crystallinity after grinding [3]: no crystal transformation and the crystallinity almost has no change after grinding | crystalline form after tableting [4]: no crystal transformation after tableting under different pressure | maximum amount relative to that of the prior art Form A [5]: less than ⅕ | Maximum amount (mg) of material sticking to the punch [5]: 0.48 mg | crystalline form before and after the formulation process [6]: remain stable before and after the formulation process

COC(=O)N1CCN(Cc2cccc(NC(=O)Nc3ccc(C)nc3)c2F)CC1.Cl.Cl.O [Form A]
Diameter (mm) [7, 13]: 6.00 mm | Hardness (kgf) [7, 13]: 3.38 kgf | Thickness (mm) [7, 13]: 1.67 mm | Tensile strength (MPa) ([7]; T=2H/πDL): 2.11 MPa | crystal form and crystallinity after grinding [3]: crystallinity of prior art Form A decreases after grinding | Maximum amount (mg) of material sticking to the punch [5]: 2.83 mg | weight loss ([8]; DVS, between about 30% RH and about 5% RH, WO2014152270A1): about 2.7 wt % | total weight gain ([8]; DVS, between about 40% RH and about 95% RH, WO2014152270A1): about 0.55 wt % | crystalline form conversion at low humidity [8]: converted to dehydrated state Form C | crystalline form conversion at low humidity ([8]; listed as prior art Form A): converted to Form C | crystalline form conversion on heating [9]: converts to Form B
